Laboratory results taken from ChEMBL document CHEMBL4393706, “Ursolic acid derivative induces apoptosis in glioma cells through down-regulation of cAMP” (2019).
Active and inactive are the calls of the source. The calls are words filed in the database; no cut-off is given here.

Experiments:
U-251 [1] = assay: Cell cycle arrest in human U251 cells assessed as accumulation at S phase at 10 uM measured after 48 hrs by propidium iodide staining based FACScan flow cytometry (reference value: 16.34 %); type: functional
U-251 [2] = assay: Induction of morphological changes in human U251 cells assessed as appearance of lipid droplets at 10 uM measured after 48 hrs by transmission electron microscopy; type: functional, cell-based
U-251 [3] = assay: Induction of morphological changes in human U251 cells assessed as membrane blebbing at 6 to 10 uM measured after 48 hrs by transmission electron microscopy; type: functional, cell-based
U-251 [4] = assay: Antiproliferative activity against human U251 cells assessed as cell proliferation at 10 uM measured after 48 hrs relative to control; type: functional; settings: U-251, 48 h, read-out: Activity
U-251 [5] = assay: Induction of apoptosis in human U251 cells assessed as apoptotic cells at 10 uM measured after 48 hrs by annexin V/FITC-propidium iodide staining-based flow cytometric method relative to control; type: functional
C6 [6] = assay: Antiproliferative activity against rat C6 cells assessed as cell proliferation at 2 uM measured after 48 hrs relative to control; type: functional; settings: C6, 48 h, read-out: Activity
U-251 [7] = assay: Induction of morphological changes in human U251 cells assessed as chromatin condensation at 6 to 10 uM measured after 48 hrs by transmission electron microscopy; type: functional, cell-based
U-251 [8] = assay: Antiproliferative activity against human U251 cells assessed as cell proliferation at 8 uM measured after 48 hrs relative to control; type: functional; settings: U-251, 48 h, read-out: Activity
U-251 [9] = assay: Induction of apoptosis in human U251 cells assessed as apoptotic cells at 4 uM measured after 48 hrs by annexin V/FITC-propidium iodide staining-based flow cytometric method ( Rvb = 2.34%); type: functional
C6 [10] = assay: Antiproliferative activity against rat C6 cells assessed as cell proliferation at 4 uM measured after 48 hrs relative to control; type: functional; settings: C6, 48 h, read-out: Activity
C6 [11] = assay: Antiproliferative activity against rat C6 cells measured after 48 hrs by MTT assay; type: functional, cell-based
U-251 [12] = assay: Antiproliferative activity against human U251 cells assessed as reduction in cAMP level at 2 uM measured after 48 hrs by radio-immunoassay; type: functional, cell-based
U-251 [13] = assay: Antiproliferative activity against human U251 cells measured after 48 hrs by MTT assay; type: functional, cell-based
U-251 [14] = assay: Cell cycle arrest in human U251 cells assessed as accumulation at G2/M phase at 6 uM measured after 48 hrs by propidium iodide staining based FACScan flow cytometry (reference value: 52.67 %); type: functional
U-251 [15] = assay: Antiproliferative activity against human U251 cells assessed as cell proliferation at 6 uM measured after 48 hrs relative to control; type: functional; settings: U-251, 48 h, read-out: Activity
U-251 [16] = assay: Induction of morphological changes in human U251 cells assessed as appearance of autophagic vacuoles at 6 to 10 uM measured after 48 hrs by transmission electron microscopy; type: functional, cell-based
U-251 [17] = assay: Induction of morphological changes in human U251 cells assessed as inhibtion of microvilli at 6 to 10 uM measured after 48 hrs by scanning electron microscopy; type: functional, cell-based
U-251 [18] = assay: Cell cycle arrest in human U251 cells assessed as accumulation at G2/M phase at 8 uM measured after 48 hrs by propidium iodide staining based FACScan flow cytometry (reference value: 52.67 %); type: functional
U-251 [19] = assay: Induction of autophagy in human U251 cells assessed as morphological changes at 10 uM measured after 48 hrs by transmission electron microscopy; type: functional, cell-based
U-251 [20] = assay: Induction of morphological changes in human U251 cells assessed as movement of chromatin granules towards periphery of nucleoplasm at 10 uM measured after 48 hrs by transmission electron microscopy; type: functional, cell-based
U-251 [21] = assay: Cell cycle arrest in human U251 cells assessed as accumulation at G2/M phase at 10 uM measured after 48 hrs by propidium iodide staining based FACScan flow cytometry (reference value: 52.67 %); type: functional
U-251 [22] = assay: Cytotoxicity against human U251 cells at 5 uM measured after 48 hrs by MTT assay; type: functional, cell-based
U-251 [23] = assay: Cell cycle arrest in human U251 cells assessed as accumulation at G0/G1 phase at 4 uM measured after 48 hrs by propidium iodide staining based FACScan flow cytometry (reference value: 29.21 %); type: functional
U-251 [24] = assay: Cell cycle arrest in human U251 cells assessed as accumulation at G0/G1 phase at 8 uM measured after 48 hrs by propidium iodide staining based FACScan flow cytometry (reference value: 29.21 %); type: functional
C6 [25] = assay: Antiproliferative activity against rat C6 cells assessed as cell proliferation at 8 uM measured after 48 hrs relative to control; type: functional; settings: C6, 48 h, read-out: Activity
C6 [26] = assay: Antiproliferative activity against rat C6 cells assessed as cell proliferation at 10 uM measured after 48 hrs relative to control; type: functional; settings: C6, 48 h, read-out: Activity
U-251 [27] = assay: Induction of morphological changes in human U251 cells assessed as inhibtion of cell surface extension at 6 to 10 uM measured after 48 hrs by scanning electron microscopy; type: functional, cell-based
U-251 [28] = assay: Cell cycle arrest in human U251 cells assessed as accumulation at S phase at 6 uM measured after 48 hrs by propidium iodide staining based FACScan flow cytometry (reference value: 16.34 %); type: functional
C6 [29] = assay: Antiproliferative activity against rat C6 cells assessed as cell proliferation at 6 uM measured after 48 hrs relative to control; type: functional; settings: C6, 48 h, read-out: Activity
U-251 [30] = assay: Cell cycle arrest in human U251 cells assessed as accumulation at G0/G1 phase at 6 uM measured after 48 hrs by propidium iodide staining based FACScan flow cytometry (reference value: 29.21 %); type: functional
U-251 [31] = assay: Induction of apoptosis in human U251 cells assessed as apoptotic cells at 6 uM measured after 48 hrs by annexin V/FITC-propidium iodide staining-based flow cytometric method relative to control; type: functional
U-251 [32] = assay: Antiproliferative activity against human U251 cells assessed as reduction in cAMP level at 6 uM measured after 48 hrs by radio-immunoassay relative to control; type: functional; design: scale not given: the % may be the effect or the level left
U-251 [33] = assay: Cell cycle arrest in human U251 cells assessed as accumulation at S phase at 8 uM measured after 48 hrs by propidium iodide staining based FACScan flow cytometry (reference value: 16.34 %); type: functional
U-251 [34] = assay: Cell cycle arrest in human U251 cells assessed as accumulation at G0/G1 phase at 10 uM measured after 48 hrs by propidium iodide staining based FACScan flow cytometry (reference value: 29.21 %); type: functional
U-251 [35] = assay: Antiproliferative activity against human U251 cells assessed as cell proliferation at 2 uM measured after 48 hrs relative to control; type: functional; settings: U-251, 48 h, read-out: Activity
U-251 [36] = assay: Induction of morphological changes in human U251 cells assessed as appearance of foamy cytoplasmic material at 6 to 10 uM measured after 48 hrs by transmission electron microscopy; type: functional, cell-based
U-251 [37] = assay: Antiproliferative activity against human U251 cells assessed as cell proliferation at 4 uM measured after 48 hrs relative to control; type: functional; settings: U-251, 48 h, read-out: Activity
U-251 [38] = assay: Induction of apoptosis in human U251 cells assessed as increase in apoptotic cells at 2 uM measured after 48 hrs by annexin V/FITC-propidium iodide staining-based flow cytometric method; type: functional, cell-based
U-251 [39] = assay: Antiproliferative activity against human U251 cells assessed as reduction in cAMP level at 4 to 10 uM measured after 48 hrs by radio-immunoassay; type: functional, cell-based
U-251 [40] = assay: Induction of apoptosis in human U251 cells assessed as apoptotic cells at 8 uM measured after 48 hrs by annexin V/FITC-propidium iodide staining-based flow cytometric method relative to control; type: functional

For C[C@H]1[C@H](C)CC[C@]2(C(=O)O)CC[C@]3(C)C(=CC[C@@H]4[C@@]5(C)C/C(=C(\c6ccc(O)cc6O)C(c6ccccc6O)c6c[nH]c7ccccc67)C(=O)C(C)(C)[C@@H]5CC[C@]43C)[C@H]12 (stereo not given in full), the Activity (U-251 [1]) was 9.65%, the Activity (U-251 [2]) was “Active” and the Activity (U-251 [3]) was “Active”. It also gave a growth at 10 µM (U-251 [4]) of 17%, an Activity (U-251 [5]) of 69.32% and a growth at 2 µM (C6 [6]) of 99%. For the same molecule, the Activity (U-251 [7]) was “Active”, the growth at 8 µM (U-251 [8]) was 39% and the Activity (U-251 [9]) was 8.56%. For the same molecule, the growth at 4 µM (C6 [10]) was 86%, the Activity (C6 [11]) was “Dose-dependent effect” and the Activity (U-251 [12]) was “inactive”. The Activity (U-251 [13]) was “Dose-dependent effect”, the Activity (U-251 [14]) was 49.26% and the growth at 6 µM (U-251 [15]) was 61%. For the same molecule, the Activity (U-251 [16]) was “Active”, the Activity (U-251 [17]) was “Active” and the Activity (U-251 [18]) was 42.45%. The Activity (U-251 [19]) was “Active”, the Activity (U-251 [20]) was “Active” and the Activity (U-251 [21]) was 35.23%. The Activity (U-251 [22]) was “Active”, the Activity (U-251 [23]) was 32.44% and the Activity (U-251 [24]) was 41.78%. The growth at 8 µM (C6 [25]) was 43%, the growth at 10 µM (C6 [26]) was 21% and the Activity (U-251 [27]) was “Active”. It also gave an Activity (U-251 [28]) of 12.51%, a growth at 6 µM (C6 [29]) of 68% and an Activity (U-251 [30]) of 36.16%. The Activity (U-251 [31]) was 21.65%, the Activity (U-251 [32]) was 50% and the Activity (U-251 [33]) was 11.78%. The Activity (U-251 [34]) was 53.76%, the growth at 2 µM (U-251 [35]) was 99% and the Activity (U-251 [36]) was “Active”. The growth at 4 µM (U-251 [37]) was 83%, the Activity (U-251 [38]) was “inactive” and the Activity (U-251 [39]) was “Active”. The Activity (U-251 [40]) was 39.78%.
